This is an account of results in patent US11129829B2, “Methods for modulating splicing” (Skyhawk Therapeutics, Inc., priority 2019, dated 2021).

What all share (format): cell-based
One assay relates to A-673. Briefly: A-673 cell viability.
The next assay deals with FoxM1 A mRNA. Briefly: Splice EC50: FoxM1 A mRNA increase (exon excluded). Particulars: read-out: Splice EC50 (nM)^B.
Another assay concerns FoxM1 BC mRNA. Briefly: Splice IC50: FoxM1 BC mRNA decrease (exon included). Conditions: read-out: Splice IC50 (nM)^C.
Setting [1] is: Homo sapiens, A673, Cell viability.

For the compound `CN(c1ccc(-c2ccc(-n3ccnn3)cc2O)nn1)[C@@H]1C[C@H]2CCC[C@@H](C1)N2` [compound 279, 2-(6-(((1R,3S,5S)-9-azabicyclo[3.3.1]nonan-3-yl)(methyl)amino)pyridazin-3-yl)-5-(1H-1,2,3-triazol-1-yl)phenol], the IC50 (as a rule, the point on the concentration scale where inhibition reaches its midpoint) in the assay on A-673 (Cell viability) is 10 to 100 nM; in the assay with FoxM1 BC mRNA, < 10 nM. Also, the EC50 (in general, the concentration needed to bring the measured effect to its halfway point) with FoxM1 A mRNA was < 10 nM.
On to `Oc1cc(-c2cn[nH]c2)ccc1-c1ccc(O[C@@H]2C[C@H]3COC[C@@H](C2)N3)nn1` [compound 159, 2-(6-(((1R,5S,7r)-3-oxa-9-azabicyclo[3.3.1]nonan-7-yl)oxy)pyridazin-3-yl)-5-(1H-pyrazol-4-yl)phenol], for which the IC50 with A-673 (setting [1]) and in the assay on FoxM1 BC mRNA was 501 to 1000 nM in each case. The EC50 with FoxM1 A mRNA was in the range of 251 to 500 nM.
With `[2H]C([2H])([2H])n1ncc(-c2ccc(-c3ccc(N(C)[C@@H]4C[C@H]5CCC[C@@H](C4)N5)nn3)c(O)c2)cc1=O` [compound 281], the IC50 in the assay with A-673 (setting [1]) and in the assay on FoxM1 BC mRNA was < 10 nM in each case. The EC50 in the assay with FoxM1 A mRNA is < 10 nM.
Turning to `Oc1cc(-c2cn[nH]c2)c(F)cc1-c1ccc(O[C@@H]2C[C@H]3CCC[C@@H](C2)N3)nn1` [compound 278, 2-(6-(((1R,3S,5S)-9-azabicyclo[3.3.1]nonan-3-yl)oxy)pyridazin-3-yl)-4-fluoro-5-(1H-pyrazol-4-yl)phenol], the IC50 in the assay on A-673 (setting [1]) was 10 to 100 nM.
In the assay with A-673 (Cell viability), “6-(6-(((1R,3S,5S)-8-azabicyclo[3.2.1]octan-3-yl)(methyl)amino)pyridazin-3-yl)quinolin-7-ol [compound 162]” gave an IC50 of 251 to 500 nM.
For `Cc1cn(-c2ccc(-c3ccc(N(C)[C@H]4C[C@]5(C)CC[C@](C)(C4)N5)nn3)c(O)c2)cn1` [compound 177, 2-(6-(((1R,3S,5S)-1,5-dimethyl-8-azabicyclo[3.2.1]octan-3-yl)(methyl)amino)pyridazin-3-yl)-5-(4-methyl-1H-imidazol-1-yl)phenol], the concentration for half-maximal inhibition (IC50) with A-673 (setting [1]) is 10 to 100 nM; with FoxM1 BC mRNA it was < 10 nM. In addition, the EC50 in the assay on FoxM1 A mRNA was < 10 nM.
Compound “2-(6-(((1R,3S,5S)-1,5-dimethyl-8-azabicyclo[3.2.1]octan-3-yl)(methyl)amino)pyridazin-3-yl)-5-(l-(methyl-d3)-1H-pyrazol-4-yl)phenol [compound 171]” returned an IC50 in the assay on A-673 (Cell viability) of 10 to 100 nM.
In the assay on A-673 (setting [1]), `CN(C)C(=O)c1cc2cc(-c3ccc(N(C)[C@@H]4C[C@H]5CCC[C@@H](C4)N5)nn3)c(O)cc2o1` [compound 298, 5-(6-(((1R,3S,5S)-9-azabicyclo[3.3.1]nonan-3-yl)(methyl)amino)pyridazin-3-yl)-6-hydroxy-N,N-dimethylbenzofuran-2-carboxamide] showed an IC50 of 10 to 100 nM.
In the case of `[2H]C([2H])([2H])n1ccc(-c2ccc(-c3ccc(N(C)[C@@H]4C[C@H]5CCC[C@@H](C4)N5)nn3)c(O)c2)cc1=O` [compound 284, 4-(4-(6-(((1R,3S,5S)-9-azabicyclo[3.3.1]nonan-3-yl)(methyl)amino)pyridazin-3-yl)-3-hydroxyphenyl)-1-(methyl-d3)pyridin-2(1H)-one], the IC50 in the assay on A-673 (setting [1]) and in the assay on FoxM1 BC mRNA was < 10 nM each time. For the same compound, in the assay on FoxM1 A mRNA, the EC50 is > 1000 nM.
For `CN(C)C(=O)c1cc2cc(O)c(-c3ccc(N(C)[C@@H]4C[C@H]5CCC[C@@H](C4)N5)nn3)cc2o1` [compound 295, 6-(6-(((1R,3S,5S)-9-azabicyclo[3.3.1]nonan-3-yl)(methyl)amino)pyridazin-3-yl)-5-hydroxy-N,N-dimethylbenzofuran-2-carboxamide], the IC50 in the assay with A-673 (setting [1]) was 251 to 500 nM.
Turning to `CN(c1ccc(-c2ccc(-c3cnn(C(F)F)c3)cc2O)nn1)[C@@H]1C[C@H]2CCC[C@@H](C1)N2` [compound 301, 2-(6-(((1R,3S,5S)-9-azabicyclo[3.3.1]nonan-3-yl)(methyl)amino)pyridazin-3-yl)-5-(l-(difluoromethy)-1H-pyrazol-4-yl)phenol], the IC50 in the assay with A-673 (setting [1]) lay in the range of 10 to 100 nM.
As to `CN(c1ccc(-c2ccc(-n3nccn3)cc2O)nn1)[C@@H]1C[C@H]2CCC[C@@H](C1)N2` [compound 275, 2-(6-(((1R,3S,5S)-9-azabicyclo[3.3.1]nonan-3-yl)(methyl)amino)pyridazin-3-yl)-5-(2H-1,2,3-triazol-2-yl)phenol], the half-inhibitory concentration (IC50) with A-673 (Cell viability) and in the assay with FoxM1 BC mRNA was < 10 nM in each case. The 50% effective concentration (EC50) in the assay with FoxM1 A mRNA is < 10 nM.
As to `Oc1cc(-c2c[nH]nn2)ccc1-c1ccc(O[C@@H]2C[C@H]3CC[C@@H](C2)N3)nn1` [compound 253, 2-(6-(((1R,3S,5S)-8-azabicyclo[3.2.1]octan-3-yl)oxy)pyridazin-3-yl)-5-(1H-1,2,3-triazol-4-yl)phenol], the half-inhibitory concentration (IC50) in the assay on A-673 (setting [1]) is 501 to 1000 nM; in the assay on FoxM1 BC mRNA, 251 to 500 nM. For the same compound, the concentration for a half-maximal effect (EC50) in the assay with FoxM1 A mRNA is 251 to 500 nM.
Regarding `Oc1cc(-c2cn[nH]c2)ccc1-c1ccc(O[C@@H]2C[C@H]3CCC[C@@H](C2)N3)nn1` [compound 277, 2-(6-(((1R,3R,5S)-9-azabicyclo[3.3.1]nonan-3-yl)oxy)pyridazin-3-yl)-5-(1H-pyrazol-4-yl)phenol], the IC50 in the assay on A-673 (Cell viability) and in the assay with FoxM1 BC mRNA was > 1000 nM throughout. Further, in the assay with FoxM1 A mRNA, the EC50 is > 1000 nM.
